Assay results reported in patent publication US9371336B2, “Compounds for treating spinal muscular atrophy” (PTC Therapeutics Inc., priority 2012, dated 2016).

Key:
Smn protein = Smn protein assay (HTRF) in cultured cells (SMA patient fibroblasts GM03813); assay type: cell-based, human; settings: 48 hours; for EC1.5x for Smn protein expression: SMA patient fibroblast cells (GM03813), HTRF, 7-point concentration data, concentration producing 1.5 times Smn protein vs DMSO vehicle control; for maximum fold (Fold) increase of Smn protein: SMA patient fibroblast cells, 7-point concentration curve, relative to vehicle control
Method: The Smn HTRF (homogeneous time resolved fluorescence) assay is used to quantify the level of Smn protein in SMA patient fibroblast cells treated with test compounds.
Cells are thawed and cultured in DMEM-10% FBS for 72 hours. Cells are trypsinized, counted and re-suspended to a concentration of 25,000 cells/mL in DMEM-10% FBS. The cell suspension is plated at 5,000 cells per well in a 96 well microtiter plate and incubated for 3 to 5 hours. […] Test compounds are serially diluted 3.16-fold in 100% DMSO to generate a 7-point concentration curve. 1 μL of test compound solution is transferred to cell-containing wells and cells are incubated for 48 hours in a cell culture incubator (37° C., 5% CO2, 100% relative humidity). Triplicate samples are set up for each test compound concentration. After 48 hours, the supernatant is removed from the wells and 25 μL of the RIPA lysis buffer, containing protease inhibitors, is added to the wells and incubated with shaking at room temperature for 1 hour. 25 μL of the diluent is added and then 35 μL of the resulting lysate is transferred to a 384-well plate, where each well contains 5 μL of the antibody solution (1:100 dilution of anti-SMN d2 and anti-SMN kryptate in SMN reconstitution buffer). The plate is centrifuged for 1 minute to bring the solution to the bottom of the wells, then incubated overnight at room temperature. Fluorescence for each well of the plate at 665 nm and 620 nm is measured on an EnVision multilabel plate reader (Perkin-Elmer).
The normalized fluorescence signal is calculated for each sample, Blank and vehicle control well by dividing the signal at 665 nm by the signal at 620 nm. Normalizing the signal accounts for possible fluorescence quenching due to the matrix effect of the lysate. The ΔF value (a measurement of Smn protein abundance as a percent value) for each sample well is calculated by subtracting the normalized average fluorescence for the Blank control wells from the normalized fluorescence for each sample well, then dividing this difference by the normalized average fluorescence for the Blank control wells and multiplying the resulting value by 100. The ΔF value for each sample well represents the Smn protein abundance from test compound-treated samples. The ΔF value for each sample well is divided by the ΔF value for the vehicle control wells to calculate the fold increase in Smn protein abundance relative to the vehicle control.

[1] = system: SMN2 minigene mRNA (SMN2-A minigene construct); assay: SMN2 minigene mRNA splicing RT-qPCR assay in cultured cells; assay type: cell-based, human; settings: Homo sapiens, HEK293-H; HEK293H cells stably transfected with SMN2-A minigene, 24 hours, 7-point concentration data; concentration giving 1.5-fold SMN2 full length mRNA relative to vehicle-treated cells; read-out: EC1.5x for production of full length SMN2 mRNA
Method: The reverse transcription-quantitative PCR-based (RT-qPCR) assay is used to quantify the level of the full length SMN2 minigene mRNA containing SMN2 exon 7 in a HEK293H cell line stably transfected with said minigene and treated with a test compound.
HEK293H cells stably transfected with the SMN2-A minigene construct described above (10,000 cells/well) are seeded in 200 μL of cell culture medium (DMEM plus 10% FBS, with 200 μg/mL hygromycin) in 96-well flat-bottom plates and the plate is immediately swirled to ensure proper dispersal of cells, forming an even monolayer of cells. Cells are allowed to attach for at least 4-6 hours. Test compounds are serially diluted 3.16-fold in 100% DMSO to generate a 7-point concentration curve. A solution of test compound (1 μL, 200× in DMSO) is added to each cell-containing well and the plate is incubated for 24 hours in a cell culture incubator (37° C., 5% CO2, 100% relative humidity). Two replicates are prepared for each test compound concentration. The cells are then lysed in Cells-To-Ct lysis buffer and the lysate is stored at −80° C.
Primer SMN Forward A (SEQ ID NO. 1) hybridizes to a nucleotide sequence in exon 7 (nucleotide 22 to nucleotide 40), primer SMN Reverse A (SEQ ID NO. 2) hybridizes to a nucleotide sequence in the coding sequence of Firefly luciferase, SMN Probe A (SEQ ID NO. 3) hybridizes to a nucleotide sequence in exon 7 (nucleotide 50 to nucleotide 54) and exon 8 (nucleotide 1 to nucleotide 21). The combination of these three oligonucleotides detects only SMN1 or SMN2 minigenes (RT-qPCR) and will not detect endogenous SMN1 or SMN2 genes.
The SMN forward and reverse primers are used at final concentrations of 0.4 μM. The SMN probe is used at a final concentration of 0.15 μM. The GAPDH primers are used at final concentrations of 0.2 μM and the probe at 0.15 μM.
The SMN2-minigene GAPDH mix (15 μL total volume) is prepared by combining 7.5 μL of 2×RT-PCR buffer, 0.4 μL of 25×RT-PCR enzyme mix, 0.75 μL of 20×GAPDH primer-probe mix, 4.0075 μL of water, 2 μL of 10-fold diluted cell lysate, 0.06 μL of 100 μM SMN forward primer, 0.06 μL of 100 μM SMN reverse primer, and 0.225 μL of 100 μM SMN probe.
PCR is carried out at the following temperatures for the indicated time: Step 1: 48° C. (15 min); Step 2: 95° C. (10 min); Step 3: 95° C. (15 sec); Step 4: 60° C. (1 min); then repeat Steps 3 and 4 for a total of 40 cycles.
Each reaction mixture contains both SMN2-A minigene and GAPDH primers/probe sets (multiplex design), allowing simultaneous measurement of the levels of two transcripts.
Two SMN spliced products are generated from the SMN2 minigene. The first spliced product containing exon 7, corresponding to SMN2 full length mRNA, is referred to herein using the term “SMN2 minigene FL.” The second spliced product lacking exon 7 is referred to herein using the term “SMN2 minigene Δ7.”
The increase of SMN2 minigene FL mRNA relative to that in cells treated with vehicle control is determined from real-time PCR data using a modified ΔΔCt method (as described in Livak and Schmittgen, Methods, 2001, 25:402-8). The amplification efficiency (E) is calculated from the slope of the amplification curve for SMN2 minigene FL and GAPDH individually. The abundances of SMN2 minigene FL and GAPDH are then calculated as (1+E)^−Ct, where Ct is the threshold value for each amplicon. The abundance of SMN2 minigene FL is normalized to GAPDH abundance. The normalized SMN2 minigene FL abundance from test compound-treated samples is then divided by normalized SMN2 minigene FL abundance from vehicle-treated cells to determine the level of SMN2 FL mRNA relative to vehicle control.

SMILES | EC1.5x for Smn protein expression (Smn protein) | maximum fold (Fold) increase of Smn protein (Smn protein) | EC (1.5-fold) [1]
Cc1ccn2cc(-c3cc4ccc(N5CCNC[C@@H]5C)nc4oc3=O)nc2c1 [Cpd 59, 3-(7-methylimidazo[1,2-a]pyridin-2-yl)-7-[(2S)-2-methylpiperazin-1-yl]-2H-pyrano[2,3-b]pyridin-2-one] | **** (an EC1.5×≦0.3 μM is indicated by four stars (****)) | **** (a fold increase between >1.5 and ≦1.65 is indicated by four stars (****)) | ≤ 0.1 µM
C[C@H]1CNCCN1c1ccc2cc(-c3cn4cccc(F)c4n3)c(=O)oc2n1 [Cpd 63, 3-(8-fluoroimidazo[1,2-a]pyridin-2-yl)-7-[(2S)-2-methylpiperazin-1-yl]-2H-pyrano[2,3-b]pyridin-2-one] | **** (an EC1.5×≦0.3 μM is indicated by four stars (****)) | **** (a fold increase between >1.5 and ≦1.65 is indicated by four stars (****)) | ≤ 0.1 µM
C[C@H]1CN(c2ccc3cc(-c4cn5cccc(F)c5n4)c(=O)oc3n2)CCN1 [Cpd 64, 3-(8-fluoroimidazo[1,2-a]pyridin-2-yl)-7-[(3S)-3-methylpiperazin-1-yl]-2H-pyrano[2,3-b]pyridin-2-one] | **** (an EC1.5×≦0.3 μM is indicated by four stars (****)) | **** (a fold increase between >1.5 and ≦1.65 is indicated by four stars (****)) | ≤ 0.1 µM
Cc1ccc2nc(-c3cc4ccc(N5CCN[C@@H](C)C5)nc4oc3=O)cn2c1 [Cpd 72, 3-(6-methylimidazo[1,2-a]pyridin-2-yl)-7-[(3S)-3-methylpiperazin-1-yl]-2H-pyrano[2,3-b]pyridin-2-one] | **** (an EC1.5×≦0.3 μM is indicated by four stars (****)) | **** (a fold increase between >1.5 and ≦1.65 is indicated by four stars (****)) | ≤ 0.1 µM
Cc1ccc2nc(-c3cc4ccc(N5CCN[C@H](C)C5)nc4oc3=O)cn2c1 [Cpd 73, 3-(6-methylimidazo[1,2-a]pyridin-2-yl)-7-[(3R)-3-methylpiperazin-1-yl]-2H-pyrano[2,3-b]pyridin-2-one] | ** (an EC1.5× between >1 and ≦3 μM is indicated by two stars (**)) | *** (a fold increase between >1.35 and ≦1.5 is indicated by three stars (***)) | 0.1 to 0.3 µM
C[C@H]1CN(c2ccc3cc(-c4cn5ccccc5n4)c(=O)oc3n2)CCN1.Cl [Cpd 79, 3-(imidazo[1,2-a]pyridin-2-yl)-7-[(3S)-3-methylpiperazin-1-yl]-2H-pyrano[2,3-b]pyridin-2-one hydrochloride] | **** (an EC1.5×≦0.3 μM is indicated by four stars (****)) | ***** (a fold increase >1.65 is indicated by five stars (*****)) | ≤ 0.1 µM
C[C@@H]1CN(c2ccc3cc(-c4cn5ccccc5n4)c(=O)oc3n2)CCN1.Cl [Cpd 80, 3-(imidazo[1,2-a]pyridin-2-yl)-7-[(3R)-3-methylpiperazin-1-yl]-2H-pyrano[2,3-b]pyridin-2-one hydrochloride] | **** (an EC1.5×≦0.3 μM is indicated by four stars (****)) | **** (a fold increase between >1.5 and ≦1.65 is indicated by four stars (****)) | ≤ 0.1 µM
C[C@H]1CN(c2ccc3cc(-c4cn5ccsc5n4)c(=O)oc3n2)CCN1.Cl [Cpd 83, 3-(imidazo[2,1-b][1,3]thiazol-6-yl)-7-[(3S)-3-methylpiperazin-1-yl]-2H-pyrano[2,3-b]pyridin-2-one hydrochloride] | **** (an EC1.5×≦0.3 μM is indicated by four stars (****)) | **** (a fold increase between >1.5 and ≦1.65 is indicated by four stars (****)) | ≤ 0.1 µM
C[C@@H]1CN(c2ccc3cc(-c4cn5ccsc5n4)c(=O)oc3n2)CCN1.Cl [Cpd 84, 3-(imidazo[2,1-b][1,3]thiazol-6-yl)-7-[(3R)-3-methylpiperazin-1-yl]-2H-pyrano[2,3-b]pyridin-2-one hydrochloride] | **** (an EC1.5×≦0.3 μM is indicated by four stars (****)) | ***** (a fold increase >1.65 is indicated by five stars (*****)) | ≤ 0.1 µM
Cc1ccn2cc(-c3cc4ccc(N5C[C@H](C)NC[C@H]5C)nc4oc3=O)nc2c1 [Cpd 88, 7-[(2R,5S)-2,5-dimethylpiperazin-1-yl]-3-(7-methylimidazo[1,2-a]pyridin-2-yl)-2H-pyrano[2,3-b]pyridin-2-one] | **** (an EC1.5×≦0.3 μM is indicated by four stars (****)) | **** (a fold increase between >1.5 and ≦1.65 is indicated by four stars (****)) | ≤ 0.1 µM
Cc1ccc2nc(-c3cc4ccc(N5C[C@H](C)N(C)C[C@H]5C)nc4oc3=O)cn2c1 [Cpd 93, 3-(6-methylimidazo[1,2-a]pyridin-2-yl)-7-[(2R,5S)-2,4,5-trimethylpiperazin-1-yl]-2H-pyrano[2,3-b]pyridin-2-one] | – | *** (a fold increase between >1.35 and ≦1.5 is indicated by three stars (***)) | 0.3 to 1 µM
Cc1cn2cc(-c3cc4ccc(N5C[C@H](C)NC[C@H]5C)nc4oc3=O)nc2cn1 [Cpd 102, 7-[(2R,5S)-2,5-dimethylpiperazin-1-yl]-3-(6-methylimidazo[1,2-a]pyrazin-2-yl)-2H-pyrano[2,3-b]pyridin-2-one] | **** (an EC1.5×≦0.3 μM is indicated by four stars (****)) | ***** (a fold increase >1.65 is indicated by five stars (*****)) | ≤ 0.1 µM
